How the values were obtained:
INFα induced pSTAT5 = INFα induced pSTAT5 in human PBMC; assay type: cell-based; conditions: Homo sapiens, PBMC, INFα 5000 units/ml, read-out: p-STAT5 IC50
Protocol: (§1) Fresh Human PBMCs were resuspended in RPMI 1640 medium with 10% FBS. Cells were seeded in a round bottom 96-well plate at the concentration of 200,000 cells/well. A 10-point dilution series of test compound (top dose 10 uM, 1:5 dilution) was added to the well using the liquid dispenser (Tecan D300e) and incubated for 1 hour at 37 C. Then human INFα recombinant protein (R&D Systems) was added to the well at the final concentration of 5000 units/ml and incubated for 15 minutes at 37 C. Cell lysates were prepared and analyzed by Phospho STAT3 (Tyr705) cellular kit (Cisbio) or Phospho STAT5 (Tyr693) Kit (Meso Scale Discovery) following manufacturer's protocol.
(§2) For calculation of the inhibition rate, the relative pSTAT signal of each well=pSTAT signal of each well−the average pSTAT signal of baseline.
(§3) The inhibition %=(the average pSTAT signal of INFα treatment wells—the relative of pSTAT signal in each compound containing well)/the average pSTAT signal of INFα treatment wells * 100%
(§4) The curve was plotted as the inhibition % (y-axis) vs. compounds concentration (x-axis) and was fitted with log(inhibitor) vs. normalized response—Variable slope by GraphPad Prism7.0.

JAK1 (JH2 domain) = target: T1, JAK1 (JH2 domain) (Homo sapiens, UniProt P23458); experiment: JAK1 JH2 domain binding assay (KINOMEscan)
T1 construct: inferred from 'similar to the method' for TYK2 JH2; DiscoverX (KINOMEscan)
T1 sequence (P23458 583-855 limits assumed): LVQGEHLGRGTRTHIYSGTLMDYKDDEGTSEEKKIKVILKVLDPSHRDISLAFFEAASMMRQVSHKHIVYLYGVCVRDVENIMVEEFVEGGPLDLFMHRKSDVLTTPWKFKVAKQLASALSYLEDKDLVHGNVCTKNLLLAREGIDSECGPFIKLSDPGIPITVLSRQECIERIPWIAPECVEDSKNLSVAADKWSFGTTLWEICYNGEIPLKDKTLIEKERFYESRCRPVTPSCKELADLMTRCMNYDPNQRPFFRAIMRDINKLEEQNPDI
Protocol: (§6) Similar to the method for TYK2 JH2 binding described above, JAK1 JH2 and JAK2 JH1 domain binding assay was performed using DiscoverX's KINOMEscan™, but with change of kinase domain. These assays were performed to compare the binding selectivity of test compounds to JAK1 JH2 and JAK2 JH1 domain.

JAK2 (JH1 domain) = target: T2, JAK2 (JH1 domain) (Homo sapiens, UniProt O60674); experiment: JAK2 JH1 domain binding assay (KINOMEscan)
T2 construct: inferred from 'similar to the method' for TYK2 JH2; DiscoverX (KINOMEscan)
T2 sequence (O60674 849-1124 limits assumed): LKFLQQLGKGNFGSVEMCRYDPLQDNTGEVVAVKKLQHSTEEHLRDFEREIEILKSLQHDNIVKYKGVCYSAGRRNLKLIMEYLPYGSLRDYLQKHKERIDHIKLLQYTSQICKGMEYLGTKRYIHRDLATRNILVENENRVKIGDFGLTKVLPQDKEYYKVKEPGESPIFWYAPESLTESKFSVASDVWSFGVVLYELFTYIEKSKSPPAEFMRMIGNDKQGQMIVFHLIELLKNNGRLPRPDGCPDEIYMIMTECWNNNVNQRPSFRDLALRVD
Protocol: as §6

[1] = target: T3, human TYK2 (JH2domain-pseudokinase) (Homo sapiens, UniProt P29597); experiment: TYK2 JH2 domain binding assay (KINOMEscan); conditions: duplicate
T3 construct: host or cells: transiently transfected HEK293 cells; unpurified extract
T3 sequence (P29597 556-888): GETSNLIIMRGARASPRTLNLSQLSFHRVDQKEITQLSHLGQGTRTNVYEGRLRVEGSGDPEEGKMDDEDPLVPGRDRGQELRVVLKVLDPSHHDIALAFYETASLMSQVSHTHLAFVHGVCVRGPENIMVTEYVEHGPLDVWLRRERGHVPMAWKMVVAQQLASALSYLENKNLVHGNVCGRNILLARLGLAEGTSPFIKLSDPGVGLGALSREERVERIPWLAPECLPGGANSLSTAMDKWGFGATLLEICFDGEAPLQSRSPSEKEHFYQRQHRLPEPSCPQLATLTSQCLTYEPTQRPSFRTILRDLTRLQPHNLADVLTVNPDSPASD
Protocol: Binding constants for the compounds described herein against the JH2 domain were determined by the following protocol for a KINOMEscan® assay (DiscoveRx). A fusion protein of a partial length construct of human TYK2 (JH2domain-pseudokinase) (amino acids G556 to D888 based on reference sequence NP_003322.3) and the DNA binding domain of NFkB is expressed in transiently transfected HEK293 cells. From these HEK 293 cells, extracts are prepared in M-PER extraction buffer (Pierce) in the presence of Protease Inhibitor Cocktail Complete (Roche) and Phosphatase Inhibitor Cocktail Set II (Merck) per manufacturers' instructions. The TYK2 (JH2domain-pseudokinase) fusion protein is labeled with a chimeric double-stranded DNA tag containing the NFkB binding site fused to an amplicon for qPCR readout, which is added directly to the expression extract (the final concentration of DNA-tag in the binding reaction is 0.1 nM).
The liganded beads are blocked with excess biotin and washed with blocking buffer (SeaBlock (Pierce), 1% BSA, 0.05% Tween 20, 1 mM DTT) to remove unbound ligand and to reduce nonspecific binding.
Extracts are used directly in binding assays without any enzyme purification steps at a ≥10,000-fold overall stock dilution (final DNA-tagged enzyme concentration <0.1 nM). Extracts are loaded with DNA-tag and diluted into the binding reaction in a two-step process. First extracts are diluted 1:100 in 1× binding buffer (PBS/0.05% Tween 20/10 mM DTT/0.1% BSA/[…] sonicated salmon sperm DNA) containing 10 nM DNA-tag. This dilution is allowed to equilibrate at room temperature for 15 minutes and then subsequently diluted 1:100 in 1× binding buffer. Test compounds were prepared as 111×stocks in 100% DMSO. […] The compounds are then diluted directly into the assays such that the final concentration of DMSO was 0.9%. All reactions are performed in polypropylene 384-well plates. Each was a final volume of 0.02 mL.
Assays are incubated with shaking for 1 hour at room temperature. Then the beads are pelleted and washed with wash buffer (1×PBS, 0.05% Tween 20) to remove displaced kinase and test compound. […] The kinase concentration in the eluates was measured by qPCR. qPCR reactions are assembled by adding […] of kinase eluate to […] of qPCR master mix containing […] amplicon primers and […] amplicon probe. The qPCR protocol consisted of a 10 minute hot start at 95° C., followed by 35 cycles of 95° C. for 15 seconds, 60° C. for 1 minute.
Test compounds are prepared as 111×stocks in 100% DMSO. […] The compounds are then diluted directly into the assays such that the final concentration of DMSO was 0.9%. The Kds are determined using a compound top concentration of 30,000 nM. Kd measurements are performed in duplicate.
Binding constants (Kds) were calculated with a standard dose-response curve using the Hill equation: […]
The Hill Slope was set to −1. Curves were fitted using a non-linear least square fit with the Levenberg-Marquardt algorithm (Levenberg, K., A method for the solution of certain non-linear problems in least squares, Q. Appl. Math. 2, 164-168 (1944)).

IL-2-induced pSTAT5 = IL-2-induced pSTAT5 in human PBMC; assay type: cell-based; conditions: 20 ng/ml of IL-2
Protocol: (§5) Similar to the method for INFα induced pSTAT5 in human PBMC described above, these assays were performed to check if test compounds have cross-activity to JAK1. JAK2 and JAK3 pathways in human PBMC. The procedure is as described with change of stimuli to 10 ng/ml of GM-CSF or 20 ng/ml of IL-2.

GM-CSF-induced pSTAT5 = GM-CSF-induced pSTAT5 in human PBMC; assay type: cell-based; conditions: 10 ng/ml of GM-CSF
Protocol: as §5

[2] = test system: JAK2/TYK2 (IL-12 induced pSTAT4); experiment: IL-12 induced pSTAT4 in human PBMC; assay type: cell-based; conditions: IL-12 10 ng/ml
Protocol: as §1, with “IL-12” for “INFα”, “10 ng/ml” for “5000 units/ml”, “STAT4” for “STAT3 (Tyr705) cellular kit (Cisbio) or Phospho STAT5”
For calculation of the inhibition rate, the relative pSTAT4 signal of each well=pSTAT4 signal of each well−the average pSTAT4 signal of baseline.
The inhibition %=(the average pSTAT4 signal of IL-12 treatment wells—the relative of pSTAT4 signal in each compound containing well)/the average pSTAT4 signal of IL-12 treatment wells*100%
as §4

INFα induced pSTAT3 = INFα induced pSTAT3 in human PBMC; assay type: cell-based; conditions: INFα 5000 units/ml, read-out: p-STAT3 IC50
Protocol: as §1, §2, §3, §4

[3] = Pharmacokinetic studies in Sprague Dawley rats; assay type: in vivo; conditions: rat, plasma, male Sprague Dawley rats
Protocol: The pharmacokinetics of test compounds were evaluated in male Sprague Dawley rats when administered via oral gavage and IV injection. The test compound was suspended in 0.5% methylcellulose for oral gavage and dissolved in 5% DMSO/5% Solutol/90% saline for IV injection. The animals were fasted overnight before administration. Plasma samples were collected predose and at 0.5, 1, 3, 6, 9, 12, and 24 hours postdose. The samples were analyzed by LC/MS/MS and the concentration of test compound at each timepoint was determined by linear regression. Pharmacokinetic parameters were calculated from the plasma concentrations using Pheonix WinNonlin.

Compound | IC50 (INFα induced pSTAT5) | Kd [1] | IC50 (IL-2-induced pSTAT5) | IC50 [2] | further results
CNc1cc2nc3c(cnn13)C(=O)N[C@H](C)COCc1ccc(C(F)(F)F)c(c1)N2 [Example 10] | 1.2 nM | 0.0023 nM | > 10000 nM | – | Kd (JAK1 (JH2 domain)): 430 nM; Kd (JAK2 (JH1 domain)): 7300 nM
[2H]C([2H])([2H])NC(=O)c1nnc(NC(=O)C2CC2)cc1Nc1cccc(-c2ncn(C)n2)c1OC [control, BMS-986165, reference compound] | – | – | 442 nM | – | IC50 (GM-CSF-induced pSTAT5): 1310 nM
CNc1cc2nn3c(cnc13)C(=O)N[C@H](C)COCc1cc(c(OC)c(F)c1F)N2 [Example 19, (7R,E)-3^4,3^5-difluoro-3^6-methoxy-7-methyl-1^8-(methylamino)-5-oxa-2,8-diaza-1(6,3)-imidazo[1,2-b]pyridazina-3(1,3)-benzenacyclononaphan-9-one] | 8.7 nM | – | 38500 nM | – | –
CNc1cc2nn3c(cnc13)C(=O)NCCOCc1ccc(OC)c(c1)N2 [Example 6] | 26.2 nM | 0.071 nM | – | – | –
CNc1cc2nc3c(cnn13)C(=O)NCCOCc1ccc(OC)c(c1)N2 [Example 2] | – | 0.14 nM | – | 12.2 nM | –
CNc1cc2nc3c(cnn13)C(=O)NCCCOc1ccc(OC)c(c1)N2 [Example 3] | – | 0.96 nM | – | 1150 nM | IC50 (INFα induced pSTAT3): 1460 nM
CNc1cc2nn3c(cnc13)C(=O)NC(C)COCc1ccc(OC)c(c1)N2 (centres unmarked) [Example 7] | 2.3 nM | 0.0071 nM | – | – | AUC ([3]; iv, I.V. (1 mg/kg)): 318 ± 30 ng·h/mL; C0 ([3]; iv, I.V. (1 mg/kg)): 1230 ± 153 ng/mL; clearance ([3]; iv, I.V. (1 mg/kg)): 52.4 ± 5.3 mL/min/kg; half-life ([3]; iv, I.V. (1 mg/kg)): 18 ± 0.96 min; Vd ([3]; iv, I.V. (1 mg/kg), read-out: Vdss): 0.956 ± 0.1 L/kg; AUC ([3]; Oral (5 mg/kg)): 84.9 ± 36 ng·h/mL; Cmax ([3]; Oral (5 mg/kg)): 18.2 ± 3.1 ng/mL; Tmax ([3]; Oral (5 mg/kg)): 40 ± 17.4 min; bioavailability ([3]; Oral (5 mg/kg)): 5.34 ± 2.3%; half-life ([3]; Oral (5 mg/kg)): 238 ± 66 min
CNc1cc2nc3c(cnn13)C(=O)NCCOCc1cnc(OC)c(c1)N2 [Example 1] | – | 0.24 nM | – | 281 nM | IC50 (INFα induced pSTAT3): 87.5 nM
CNc1cc2nn3c(cnc13)C(=O)NCCCOc1ccc(OC)c(c1)N2 [Example 4] | – | 0.38 nM | – | 16.1 nM | –
CNc1cc2nn3c(cnc13)C(=O)N[C@H](C)COCc1cc(c3nn(C)cc3c1)N2 [Example 24] | 0.5 nM | – | 9390 nM | – | –

Reference: patent publication US20250276977A1, “TYK2 INHIBITORS AND USES THEREOF” (Alumis Inc., priority 2019, published 2025)
